Test system: Karpas cells
Experiment: Detection of surface protein combinations of the protein network on untreated (V1) and actinonin-treated (V2) Karpas cells
Format: cell-based
Conditions: actinonin-treated Karpas cells (V2)
Description: Principally, detecting of the surface protein combinations may comprise procedural steps of an automated method for determining molecular classes, molecular groups or molecular parts in a solid or liquid object according to DE 197 09 348 C. In these steps, surface proteins may be examined and measured in one and the same object, i.e. in a sample of immune cells and/or tumor cells for example, by sequentially applying reagent solutions Yn (n=1,2,3, . . . N) by means of an automated apparatus, said procedural steps being: I. taking a first reagent solution Y1 from a vessel containing the reagent solution, II. applying said reagent solution Y1 to the object which is on an object slide, III. allowing the reagent solution to react for an automatically set period of time, IV. recording at least one individual labeling pattern of the object previously labeled with said first reagent solution Y1, V. repeating steps I-IV by applying said first reagent solution Y1 or a second reagent solution Y2 or a mixture of said first and second reagent solutions, and VI. repeating steps I to V with further reagent solutions Yn (n=2,3, . . . N) or a mixture thereof and whereby the labeling distribution patterns obtained in each cycle of the method are turned into a complex molecular combination pattern of the object to be examined by computer-aided image overlay. From this combination pattern, information may be gained on the presence of the above mentioned proteins, thus also allowing detection of the surface protein combinations, if the reagent solutions used contain labeled substances directed against the proteins in question. In numerous examinations, it was possible to identify the 30 cell surface proteins already listed above which belong to a specific protein network controlling the early polarization stages of tumor cells and immune cells. In a further examination, surface protein combinations of this protein network of Karpas cells were detected, both in untreated form and after treatment with the aminopeptidase inhibitor actinonin. For this purpose, two groups V1 and V2 of Karpas cells were formed, with the cells of group Vl remaining untreated, while the cells of group V2 were treated with actinonin. Table 2 lists those surface protein combinations which are present both in the actinonin-treated cells and in the untreated cells. However, this table and the further tables 3 and 4 only give examples of 18 of the 30 proteins, with the detected proteins being designated 1 and the non-detected proteins being designated 0. The proteins are continuously numbered 1 to 18, with the nomenclature being notable from table 1. [table] The cell numbers stated in tables 2 to 4 refer to each 1,000 cells examined in groups V1 and V2. Table 3 lists the surface protein combinations which only occur in the untreated Karpas cells and are never found in the actinonin-treated Karpas cells. The number of protein combinations listed in this table 3 amounts to 131. Finally, table 4 exclusively lists those surface protein combinations which occur exclusively in the actinonin-treated Karpas cells. It may be gathered from tables 2 to 4 that, if one examines merely 18 proteins of the 30 proteins, a total of 394 different surface protein combinations will occur, with a total of 334 different combinations occurring in the untreated cells and a total of 263 different combinations being detected in the treated cells.

Measured: V2 No. of cells In 1/1000

CCCCC[C@H](CC(=O)NO)C(=O)N[C@H](C(=O)N1CCC[C@H]1CO)C(C)C [actinonin]
0.0 1/1000: surface protein combination No. 19, binary code proteins 1-18: 011000011101011100, untreated V1: 0.4 | surface protein combination No. 20, binary code proteins 1-18: 011000011000000000, untreated V1: 0.4 | surface protein combination No. 21, binary code proteins 1-18: 010000001101001100, untreated V1: 0.4 | surface protein combination No. 22, binary code proteins 1-18: 010000001100011100, untreated V1: 0.4 | surface protein combination No. 23, binary code proteins 1-18: 001100011011001000, untreated V1: 0.4 | surface protein combination No. 24, binary code proteins 1-18: 001100011001001000, untreated V1: 0.4 | surface protein combination No. 25, binary code proteins 1-18: 001000010101101000, untreated V1: 0.4 | surface protein combination No. 26, binary code proteins 1-18: 001000010010001000, untreated V1: 0.4 | surface protein combination No. 27, binary code proteins 1-18: 000000000010001000, untreated V1: 0.4 | surface protein combination No. 28, binary code proteins 1-18: 111000011111011100, untreated V1: 0.2 | surface protein combination No. 29, binary code proteins 1-18: 110000011100011100, untreated V1: 0.2 | surface protein combination No. 30, binary code proteins 1-18: 101100000000001100, untreated V1: 0.2 | surface protein combination No. 31, binary code proteins 1-18: 101000111111011000, untreated V1: 0.2 | surface protein combination No. 32, binary code proteins 1-18: 011100011111011100, untreated V1: 0.2 | surface protein combination No. 33, binary code proteins 1-18: 011100011100001000, untreated V1: 0.2 | surface protein combination No. 34, binary code proteins 1-18: 011100001100001100, untreated V1: 0.2 | surface protein combination No. 35, binary code proteins 1-18: 001100000011001000, untreated V1: 0.2 | surface protein combination No. 36, binary code proteins 1-18: 001000011100000000, untreated V1: 0.2 | surface protein combination No. 37, binary code proteins 1-18: 001000010111011100, untreated V1: 0.2 | surface protein combination No. 38, binary code proteins 1-18: 001000010110001000, untreated V1: 0.2 | surface protein combination No. 39, binary code proteins 1-18: 001000001011000000, untreated V1: 0.2 | surface protein combination No. 40, binary code proteins 1-18: 000100010100001000, untreated V1: 0.2 | surface protein combination No. 41, binary code proteins 1-18: 000000011011001000, untreated V1: 0.2 | surface protein combination No. 42, binary code proteins 1-18: 000000010110001000, untreated V1: 0.2 | surface protein combination No. 43, binary code proteins 1-18: 000000010010001000, untreated V1: 0.2 | surface protein combination No. 44, binary code proteins 1-18: 000000000000001100, untreated V1: 0.2 | surface protein combination No. 45, binary code proteins 1-18: 111100101100011000, untreated V1: 0.1 | surface protein combination No. 46, binary code proteins 1-18: 111100011101001100, untreated V1: 0.1 | surface protein combination No. 47, binary code proteins 1-18: 111100011100111100, untreated V1: 0.1 | surface protein combination No. 48, binary code proteins 1-18: 111100011100011000, untreated V1: 0.1 | surface protein combination No. 49, binary code proteins 1-18: 111000011111011000, untreated V1: 0.1 | surface protein combination No. 50, binary code proteins 1-18: 111000011101011000, untreated V1: 0.1 | surface protein combination No. 51, binary code proteins 1-18: 111000001100011100, untreated V1: 0.1 | surface protein combination No. 52, binary code proteins 1-18: 110000001101011100, untreated V1: 0.1 | surface protein combination No. 53, binary code proteins 1-18: 110000001100000100, untreated V1: 0.1 | surface protein combination No. 54, binary code proteins 1-18: 101100011011011000, untreated V1: 0.1 | surface protein combination No. 55, binary code proteins 1-18: 101100010111001100, untreated V1: 0.1 | surface protein combination No. 56, binary code proteins 1-18: 101100010011001000, untreated V1: 0.1 | surface protein combination No. 57, binary code proteins 1-18: 101100000000001000, untreated V1: 0.1 | surface protein combination No. 58, binary code proteins 1-18: 101000110101011000, untreated V1: 0.1 | surface protein combination No. 59, binary code proteins 1-18: 101000011111011100, untreated V1: 0.1 | surface protein combination No. 60, binary code proteins 1-18: 101000011101011000, untreated V1: 0.1 | surface protein combination No. 61, binary code proteins 1-18: 101000010111111000, untreated V1: 0.1 | surface protein combination No. 62, binary code proteins 1-18: 101000010101011100, untreated V1: 0.1 | surface protein combination No. 63, binary code proteins 1-18: 100100110100011100, untreated V1: 0.1 | surface protein combination No. 93, binary code 001100010111111000 | surface protein combination No. 94, binary code 001100010111101100 | surface protein combination No. 95, binary code 001100010100011000 | surface protein combination No. 96, binary code 001100010011001100 | surface protein combination No. 97, binary code 001100010001001100 | surface protein combination No. 98, binary code 001100001101001000 | surface protein combination No. 99, binary code 001100000101000000 | surface protein combination No. 100, binary code 001000111111011000 | surface protein combination No. 101, binary code 001000111101011000 | surface protein combination No. 102, binary code 001000111011011000 | surface protein combination No. 103, binary code 001000011111011100 | surface protein combination No. 104, binary code 001000011101101000 | surface protein combination No. 105, binary code 001000011001011000 | surface protein combination No. 106, binary code 001000011001000100 | surface protein combination No. 107, binary code 001000010111101000 | surface protein combination No. 108, binary code 001000010101000100 | surface protein combination No. 109, binary code 001000010100011000 | surface protein combination No. 110, binary code 001000010011010000 | surface protein combination No. 111, binary code 001000010001011100 | surface protein combination No. 112, binary code 001000001111001000 | surface protein combination No. 113, binary code 001000001011001000 | surface protein combination No. 114, binary code 001000001001001000 | surface protein combination No. 115, binary code 001000001000000000 | surface protein combination No. 116, binary code 001000000110001000 | surface protein combination No. 117, binary code 000100011001000000
